Reference: the supplement of paper PMC10307832

Tests used:
Assay in all cases: relative viability (nuclei count vs DMSO), 5 days (fraction); higher = more cells survive
Wnt-C59 + Tozasertib = compound: CC1=NC=CC(=C1)C2=CC=C(C=C2)CC(=O)NC3=CC=C(C=C3)C4=CN=CC=C4 [Wnt-C59] + Cc1cc(Nc2cc(N3CCN(C)CC3)nc(Sc3ccc(NC(=O)C4CC4)cc3)n2)n[nH]1 [Tozasertib] (partner 0.1 µM)
Summary of the method: (§1)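 Relative viability was taken as the ratio of nuclei in treated wells to nuclei in vehicle wells. Lung cancer cell lines in 1536-well plates received compounds by pin tool one day after seeding, either one drug alone or a fixed anchor-drug dose plus five library-drug doses (not always all listed) in √10 steps. Nuclei were counted on 4× images after 5 days of treatment, and values are medians of duplicate plates.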

Lapatinib + Foretinib = compound: CS(=O)(=O)CCNCc1ccc(-c2ccc3ncnc(Nc4ccc(OCc5cccc(F)c5)c(Cl)c4)c3c2)o1 [Lapatinib] + COc1cc2c(Oc3ccc(NC(=O)C4(C(=O)Nc5ccc(F)cc5)CC4)cc3F)ccnc2cc1OCCCN1CCOCC1 [Foretinib] (partner 0.25 µM)
Summary of the method: as §1

Wnt-C59 + Dasatinib = compound: CC1=NC=CC(=C1)C2=CC=C(C=C2)CC(=O)NC3=CC=C(C=C3)C4=CN=CC=C4 [Wnt-C59] + Cc1nc(Nc2ncc(C(=O)Nc3c(C)cccc3Cl)s2)cc(N2CCN(CCO)CC2)n1 [Dasatinib] (partner 0.075 µM)
Summary of the method: as §1

Lapatinib + Pictilisib = compound: CS(=O)(=O)CCNCc1ccc(-c2ccc3ncnc(Nc4ccc(OCc5cccc(F)c5)c(Cl)c4)c3c2)o1 [Lapatinib] + CS(=O)(=O)N1CCN(Cc2cc3nc(-c4cccc5[nH]ncc45)nc(N4CCOCC4)c3s2)CC1 [Pictilisib] (partner 1 µM)
Summary of the method: as §1

| Cell Line | relative viability (Wnt-C59 + Tozasertib; first compound 0.001 µM) | relative viability (Wnt-C59 + Tozasertib; first compound 0.01 µM) | relative viability (Wnt-C59 + Tozasertib; first compound 0.03162 µM) | relative viability (Wnt-C59 + Tozasertib; first compound 0.1 µM) | relative viability (Lapatinib + Foretinib; first compound 0.02 µM) | relative viability (Lapatinib + Foretinib; first compound 0.06325 µM) | relative viability (Lapatinib + Foretinib; first compound 0.2 µM) | relative viability (Lapatinib + Foretinib; first compound 0.6325 µM) | relative viability (Lapatinib + Foretinib; first compound 2 µM) | relative viability (Wnt-C59 + Dasatinib; first compound 0.001 µM) | relative viability (Wnt-C59 + Dasatinib; first compound 0.01 µM) | relative viability (Wnt-C59 + Dasatinib; first compound 0.03162 µM) | relative viability (Wnt-C59 + Dasatinib; first compound 0.1 µM) | relative viability (Lapatinib + Pictilisib; first compound 0.06325 µM) | relative viability (Lapatinib + Pictilisib; first compound 0.2 µM) | relative viability (Lapatinib + Pictilisib; first compound 0.6325 µM) | relative viability (Lapatinib + Pictilisib; first compound 2 µM) | relative viability (Lapatinib + Pictilisib; first compound 0.02 µM) |
| --- | --- | --- | --- | --- | --- | --- | --- | --- | --- | --- | --- | --- | --- | --- | --- | --- | --- | --- |
| PC-3 [JPC-3] | 0.935 | 0.922 | 0.984 | 0.911 | 1.04 | 0.989 | 1.03 | 1.09 | 0.471 | 1.01 | 1.05 | 1.13 | 1.07 | 0.687 | 0.621 | 0.769 | 0.512 | – |
| NCI-H1993 | 0.607 | – | 0.515 | 0.633 | 0.691 | – | 0.75 | 0.71 | 0.762 | 0.601 | – | 0.631 | 0.631 | – | 0.808 | 0.812 | 0.977 | 0.715 |
| NCI-H1734 | 0.258 | 0.233 | 0.288 | 0.139 | 0.842 | 0.694 | 0.804 | 0.888 | 0.779 | 0.418 | 0.452 | 0.516 | 0.442 | 0.354 | 0.451 | 0.47 | 0.534 | – |
| ChaGo-K-1 | 0.221 | 0.233 | 0.242 | 0.223 | 0.907 | 0.936 | 0.879 | 0.951 | 0.835 | 0.659 | 0.606 | 0.65 | 0.606 | 0.861 | 0.598 | 0.599 | 0.32 | – |
| LU99A | 0.256 | 0.276 | 0.272 | 0.262 | 0.784 | 0.72 | 0.74 | 0.836 | 0.815 | 0.55 | 0.506 | 0.501 | 0.538 | 0.26 | 0.345 | 0.346 | 0.372 | 0.337 |
| ABC-1 | 0.15 | 0.166 | 0.164 | 0.19 | 0.949 | 0.912 | 1.16 | 1.32 | 0.964 | 0.509 | 0.605 | 0.506 | 0.592 | 0.655 | 1.09 | 0.93 | 0.696 | – |
| NCI-H1650 | 0.423 | 0.477 | 0.499 | 0.423 | 1 | 1.08 | 1.03 | 1.01 | 0.684 | 0.302 | 0.333 | 0.309 | 0.322 | 0.415 | 0.672 | 0.663 | 0.503 | 0.253 |
| NCI-H596 | 0.943 | 0.778 | 0.882 | 0.905 | – | 0.832 | 0.756 | 0.835 | 0.789 | 0.609 | 0.477 | 0.554 | 0.611 | 0.388 | 0.4 | 0.415 | 0.407 | 0.39 |
| NCI-H1915 | 0.471 | 0.404 | 0.508 | 0.457 | – | 1.06 | 1.12 | 1.08 | 1.09 | 0.315 | 0.316 | 0.303 | 0.317 | 0.909 | 0.982 | 0.981 | 0.949 | – |
| NCI-H1395 | 0.71 | 0.668 | 0.755 | 0.844 | 1.03 | 1.04 | 1.01 | 0.929 | 0.917 | 0.406 | 0.398 | 0.423 | 0.444 | 0.66 | 0.527 | 0.696 | 0.583 | – |
| CAL-12T | 0.47 | 0.335 | 0.349 | 0.263 | – | 1.12 | 1.03 | 1.02 | 0.954 | 0.505 | 0.391 | 0.475 | 0.437 | 0.415 | 0.31 | 0.528 | 0.351 | – |
| HARA | 0.103 | 0.135 | 0.151 | 0.088 | – | 0.593 | 0.843 | 0.631 | 0.401 | 0.249 | 0.208 | 0.293 | 0.32 | 0.261 | 0.527 | 0.33 | 0.288 | 0.418 |
| H3255 | 0.715 | 0.616 | 0.626 | 0.63 | 0.405 | 0.789 | 0.826 | 0.862 | 0.686 | 0.425 | 0.359 | 0.32 | 0.335 | 0.403 | 0.397 | 0.284 | 0.155 | 0.452 |
| NCI-H2023 | 0.406 | 0.332 | 0.352 | 0.356 | – | – | 0.685 | 0.437 | 0.357 | 0.563 | 0.538 | 0.628 | 0.333 | 0.15 | 0.262 | 0.276 | 0.199 | 0.164 |
| HCC-78 | 0.492 | 0.404 | 0.504 | 0.441 | – | 0.427 | 0.446 | 0.429 | 0.401 | 0.392 | 0.428 | 0.387 | 0.419 | 0.265 | 0.196 | 0.21 | 0.208 | – |
| HOP-62 | 0.349 | 0.363 | 0.394 | 0.314 | 1.14 | 1.16 | 1.03 | 1.09 | 1.13 | 0.696 | 0.66 | 0.716 | 0.697 | 0.66 | 0.76 | 0.816 | 0.672 | – |
| NCI-H1755 | 0.647 | 0.528 | 0.646 | 0.534 | 0.866 | 0.865 | 0.898 | 0.896 | 0.892 | 0.429 | 0.405 | 0.436 | 0.41 | 0.363 | 0.433 | 0.437 | 0.371 | 0.244 |
| NCI-H1651 | 0.918 | 0.537 | 0.761 | 0.744 | 0.716 | 0.776 | 0.764 | 0.695 | 0.611 | 0.385 | 0.421 | 0.405 | 0.447 | 0.472 | 0.526 | 0.613 | 0.596 | 0.561 |
| SK-MES-1 | 0.94 | 0.913 | 0.944 | 0.824 | 0.826 | 0.499 | 0.969 | 0.908 | 0.516 | 0.393 | 0.264 | 0.39 | 0.337 | 0.3 | 0.235 | 0.257 | 0.199 | 0.36 |
